Laboratory results reported in a compilation of properties of binary mixtures (doi:10.1016/j.jct.2017.01.014).

Assay: xn = mol fraction of the nth substance listed
Conditions: 100 kPa

C=CN1CCCC1=O + CCCC[n+]1ccn(C)c1.O=S(=O)([N-]S(=O)(=O)C(F)(F)F)C(F)(F)F
speed of sound [m/s]
Conditions | x1 = 0.1377 | x1 = 0.2099 | x1 = 0.3148 | x1 = 0.4117 | x1 = 0.5061 | x1 = 0.6078 | x1 = 0.7032 | x1 = 0.79 | x1 = 0.8989 | x1 = 1
298.15 K | 1241.2 | 1249.4 | 1263 | 1278.3 | 1296.5 | 1321.4 | 1350.7 | 1384.6 | 1442.2 | –
303.15 K | 1229.8 | 1237.8 | 1251.1 | 1266.1 | 1283.9 | 1308.1 | 1336.6 | 1369.6 | 1425.6 | 1502.5
308.15 K | 1218.5 | – | – | 1253.8 | 1271.2 | 1294.7 | 1322.7 | 1354.8 | 1409.1 | 1483.7
313.15 K | 1207.3 | – | 1227.5 | 1241.7 | – | 1281.5 | 1308.7 | 1340 | 1392.8 | 1465
318.15 K | – | 1203.6 | – | 1229.7 | 1246.1 | 1268.4 | 1294.9 | 1325.3 | 1376.5 | –
323.15 K | 1185.3 | – | – | 1217.8 | 1233.8 | 1255.4 | 1281.1 | 1310.5 | 1360.3 | 1428.1

CCCC[n+]1ccn(C)c1.O=S(=O)([N-]S(=O)(=O)C(F)(F)F)C(F)(F)F + C=CN1CCCC1=O
x2 = 0
Conditions | speed of sound [m/s]
298.15 K | 1227.9
303.15 K | 1216.8
308.15 K | 1205.8
313.15 K | 1195
318.15 K | 1184.2
323.15 K | 1173.6
